We go through 3 compounds from article PMC4850424 (Molecular Cell, 2016).

One assay has as its system testis-derived Brdt. Nature of the assay: JQ1 inhibition of Brdt binding to H4 peptides. The arrangement: species or system mouse. Conditions: JQ1 added to extract prior to peptide pull-down; Figure 6C lower left.
For assay [1], the system named is histone octamers / chromatin (H4K5 and H4K8). Conditions: [14C] butyryl-CoA, in vitro; ref Chen et al., 2007; cited from earlier work.

As for `Cc1sc2c(c1C)C(c1ccc(Cl)cc1)=N[C@@H](CC(=O)OC(C)(C)C)c1nnc(C)n1-2` [JQ1], in the assay with testis-derived Brdt, the “inhibition of Brdt binding to H4K5acK8bu peptide” value is reported as “abolished the binding” and the “inhibition of Brdt binding to acetylated H4 peptide” value is “abolished the binding”.

For “CREB binding protein (CBP): histone acyltransferase”, the “lysine butyrylation of core histones” value in assay [1] is “can catalyze lysine butyrylation”.

Take “p300: Flag tagged human p300 (324-2094), recombinant from baculovirus-infected insect cells”: in assay [1], the “lysine butyrylation of core histones” value is listed as “can catalyze lysine butyrylation”.
